pIC50: −log10 of the molar value.
Tests used:
[1] = system: phospho-ERK in SW620 (KRAS-G12V) cells; experiment: pERK In Cell Western (ICW) assay (Method B), SW620; type: cell-based
Summary of the method: (§1)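 Cells were seeded at 5,000/well (AGS) or 10,000/well (GP2D, SW620), grown overnight, then treated 3 h at 37 °C with a ½-log 9-point compound dilution. Fixed cells were stained for phospho-ERK with DRAQ5 as DNA counterstain; pERK/DRAQ5 ratio as percent of blank control gave IC50 by 4-parameter fit.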

[2] = molecular target: GST-tagged KRAS-G12V (2-169) (Homo sapiens, UniProt P01116, G12V); experiment: Nucleotide exchange assay (NEA), SOS-mediated, HTRF, KRAS G12V; type: biochemical; settings: Table 4; IC50 extracted at 90 min; 80 nM SOS
Summary of the method: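 GST-KRAS-G12V (2-169), 0.25 nM, pre-incubated 1 h at RT with compound, then SOS1cat (564-1049) 80 nM and GTP-DY-647P1 150 nM added in HEPES pH 7.3 buffer with MgCl2 and DTT. HTRF via anti-GST Tb cryptate read over 90 min; IC50 from 4-parameter fit at 90 min, blanked to no-SOS reactions.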

[3] = system: phospho-ERK in GP2D (KRAS-G12D) cells; experiment: pERK In Cell Western (ICW) assay (Method B), GP2D; type: cell-based
Summary of the method: as §1

[4] = molecular target: GST-tagged KRAS-G12D (2-169) (Homo sapiens, UniProt P01116, G12D); experiment: Nucleotide exchange assay (NEA), SOS-mediated, HTRF, KRAS G12D; type: biochemical; settings: Table 4; IC50 extracted at 30 min; 20 nM SOScat; read-out: NEA G12D IC50
Summary of the method: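 Compound preincubated 1 h at RT with 0.25 nM GST-KRAS-G12D (2-169) and anti-GST Tb donor, then 20 nM SOS1cat (564-1049) and 150 nM GTP-DY-647P1 added; pH 7.3 HEPES buffer with MgCl2 and DTT. HTRF monitored at RT; % inhibition versus DMSO and no-SOS blank, 4-parameter IC50 taken at 30 min.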

[5] = Homo sapiens, SW-620, 3 h, Table 4

GST-tagged KRAS-G12D (2-169), sequence (P01116 2-169 isoform P01116-2 G12D): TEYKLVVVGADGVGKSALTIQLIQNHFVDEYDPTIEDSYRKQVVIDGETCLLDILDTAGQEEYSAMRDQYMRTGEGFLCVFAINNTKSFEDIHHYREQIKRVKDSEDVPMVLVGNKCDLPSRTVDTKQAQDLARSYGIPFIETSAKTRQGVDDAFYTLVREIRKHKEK
GST-tagged KRAS-G12V (2-169), sequence (P01116 2-169 isoform P01116-2 G12V): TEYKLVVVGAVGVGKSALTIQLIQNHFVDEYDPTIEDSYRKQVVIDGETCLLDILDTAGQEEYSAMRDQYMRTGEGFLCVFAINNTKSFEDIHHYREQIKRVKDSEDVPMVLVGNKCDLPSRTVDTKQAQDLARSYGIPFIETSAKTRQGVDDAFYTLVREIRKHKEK

Row | SMILES | pIC50 [1, 5] | pIC50 [2] | pIC50 ([3]; GP2d, 3 h, Table 4) | pIC50 [4] | pIC50 ([1]; Table 4, 3 hours) | pIC50 ([3]; Table 4, 3 hours)
1 | C[C@@]1(O)CCCN(c2nc(OCC3(CN4CCOCC4)CC3)nc(N3CC4(C3)c3c(sc(N)c3C#N)C[C@@H]4F)n2)C1 [Compound 68, (5S)-2-amino-5-fluoro-1′-[4-[(3R)-3-hydroxy-3-methyl-1-piperidyl]-6-[[1-(morpholinomethyl)cyclopropyl]methoxy]-1,3,5-triazin-2-yl]spiro[5,6-dihydrocyclopenta[b]thiophene-4,3′-azetidine]-3-carbonitrile] | 6.00 to 7.00 | 7.00 to 8.00 | 6.00 to 7.00 | > 8.00 | – | –
2 | N#Cc1c(N)sc2c1C1(CC2)CN(c2nc(OC[C@@]34CCCN3C[C@H](F)C4)nc(N3CCCC4(C3)NC(=O)NC4=O)n2)C1 (stereo partly drawn) [Compound 45, 2-amino-1′-[4-(2,4-dioxo-1,3,9-triazaspiro[4.5]decan-9-yl)-6-[[(2R,8S)-2-fluoro-1,2,3,5,6,7-hexahydropyrrolizin-8-yl]methoxy]-1,3,5-triazin-2-yl]spiro[5,6-dihydrocyclopenta[b]thiophene-4,3′-azetidine]-3-carbonitrile] | 4.70 to 6.00 | > 8.00 | 6.00 to 7.00 | > 8.00 | – | –
3 | CC(c1nsnc1N)N(C)c1nc(OC[C@@]23CCCN2C[C@H](F)C3)nc(N2CC3(CCc4sc(N)c(C#N)c43)C2)n1 (stereo partly drawn) [Compound 170, -amino-1′-[4-[1-(4-amino-1,2,5-thiadiazol-3-yl)ethyl-methyl-amino]-6-[[(2R,8S)-2-fluoro-1,2,3,5,6,7-hexahydropyrrolizin-8-yl]methoxy]-1,3,5-triazin-2-yl]spiro[5,6-dihydrocyclopenta[b]thiophene-4,3′-azetidine]-3-carbonitrile] | 7.00 to 8.00 | > 8.00 | 6.00 to 7.00 | 7.00 to 8.00 | – | –
4 | CCN(c1nc(OC[C@@]23CCCN2C[C@H](F)C3)nc(N2CC3(C2)c2c(sc(N)c2C#N)CN3C)n1)[C@H](C)c1cccnc1N [Compound 226, 2-amino-1′-[4-[[(1R)-1-(2-amino-3-pyridyl)ethyl]-ethyl-amino]-6-[[(2R,8S)-2-fluoro-1,2,3,5,6,7-hexahydropyrrolizin-8-yl]methoxy]-1,3,5-triazin-2-yl]-5-methyl-spiro[6H-thieno[2,3-c]pyrrole-4,3′-azetidine]-3-carbonitrile] | 7.00 to 8.00 | > 8.00 | 7.00 to 8.00 | > 8.00 | – | –
5 | CC1(NC#N)CCCN(c2nc(OC[C@@]34CCCN3C[C@H](F)C4)nc(N3CC4(CCc5sc(N)c(C#N)c54)C3)n2)C1 (stereo partly drawn) [Compound 52, [1-[4-(2-amino-3-cyano-spiro[5,6-dihydrocyclopenta[b]thiophene-4,3′-azetidine]-1′-yl)-6-[[(2R,8S)-2-fluoro-1,2,3,5,6,7-hexahydropyrrolizin-8-yl]methoxy]-1,3,5-triazin-2-yl]-3-methyl-3-piperidyl]cyanamide] | 4.70 to 6.00 | 7.00 to 8.00 | 6.00 to 7.00 | 7.00 to 8.00 | – | –
6 | CCN(c1nc(OC[C@@]23CCCN2C[C@H](F)C3)nc(N2CC3(C2)SCc2sc(N)c(C#N)c23)n1)[C@H](C)c1cccnc1N [Compound 139A, 2-amino-1′-[4-[[(1*)-1-(2-amino-3-pyridyl)ethyl]-ethyl-amino]-6-[[(2R,8S)-2-fluoro-1,2,3,5,6,7-hexahydropyrrolizin-8-yl]methoxy]-1,3,5-triazin-2-yl]spiro[6H-thieno[3,4-b]thiophene-4,3′-azetidine]-3-carbonitrile] | > 8.00 | > 8.00 | > 8.00 | > 8.00 | – | –
7 | CN(c1nc(OC[C@@]23CCCN2C[C@H](F)C3)nc(N2CC3(C2)SCc2sc(N)c(C#N)c23)n1)C1CC1 [Compound 160, 2-amino-1′-[4-[cyclopropyl(methyl)amino]-6-[[(2R,8S)-2-fluoro-1,2,3,5,6,7-hexahydropyrrolizin-8-yl]methoxy]-1,3,5-triazin-2-yl]spiro[6H-thieno[3,4-b]thiophene-4,3′-azetidine]-3-carbonitrile] | 6.00 to 7.00 | 7.00 to 8.00 | 6.00 to 7.00 | 7.00 to 8.00 | – | –
8 | CC(c1nsnc1N)N(C)c1nc(OC[C@@]23CCCN2C[C@H](F)C3)nc(N2CC3(C2)SCc2sc(N)c(C#N)c23)n1 (stereo partly drawn) [Compound 174, 2-amino-1′-[4-[1-(4-amino-1,2,5-thiadiazol-3-yl)ethyl-methyl-amino]-6-[[(2R,8S)-2-fluoro-1,2,3,5,6,7-hexahydropyrrolizin-8-yl]methoxy]-1,3,5-triazin-2-yl]spiro[6H-thieno[2,3-c]thiophene-4,3′-azetidine]-3-carbonitrile] | > 8.00 | > 8.00 | 7.00 to 8.00 | > 8.00 | – | –
9 | CC(c1cccnc1N)N(C)c1nc(OC[C@@]23CCCN2C[C@H](F)C3)nc(N2CC3(CCc4sc(N)c(C#N)c43)C2)n1 (single isomer, unassigned) [Compound 100B, 2-amino-1′-[4-[[(1*)-1-(2-amino-3-pyridyl)ethyl]-methyl-amino]-6-[[(2R,8S)-2-fluoro-1,2,3,5,6,7-hexahydropyrrolizin-8-yl]methoxy]-1,3,5-triazin-2-yl]spiro[5,6-dihydrocyclopenta[b]thiophene-4,3′-azetidine]-3-carbonitrile] | – | > 8.00 | – | 7.00 to 8.00 | 7.00 to 8.00 | 6.00 to 7.00
10 | N#Cc1c(N)sc2c1C1(CC2)CN(c2nc(NCc3ccn[nH]3)nc(OC[C@@]34CCCN3C[C@H](F)C4)n2)C1 [Compound 84, 2-amino-1′-[4-[[(2R,8S)-2-fluoro-1,2,3,5,6,7-hexahydropyrrolizin-8-yl]methoxy]-6-(1H-pyrazol-5-ylmethylamino)-1,3,5-triazin-2-yl]spiro[5,6-dihydrocyclopenta[b]thiophene-4,3′-azetidine]-3-carbonitrile] | ≤ 4.70 | 6.00 to 7.00 | 4.70 to 6.00 | 6.00 to 7.00 | – | –
11 | N#Cc1c(N)sc2c1C1(CN(c3nc(OC[C@@]45CCCN4C[C@H](F)C5)nc(N4CCOCC(C#N)C4)n3)C1)SC2 (stereo partly drawn) [Compound 146, 4-[4-(2-amino-3-cyano-spiro[6H-thieno[3,4-b]thiophene-4,3′-azetidine]-1′-yl)-6-[[(2R,8S)-2-fluoro-1,2,3,5,6,7-hexahydropyrrolizin-8-yl]methoxy]-1,3,5-triazin-2-yl]-1,4-oxazepane-6-carbonitrile] | 6.00 to 7.00 | > 8.00 | 6.00 to 7.00 | 7.00 to 8.00 | – | –
12 | CC(c1ccn[nH]1)N(C)c1nc(OC[C@@]23CCCN2C[C@H](F)C3)nc(N2CC3(CCc4sc(N)c(C#N)c43)C2)n1 (stereo partly drawn) [Compound 129, 2-amino-1′-[4-[methyl-[1-(1H-pyrazol-5-yl)ethyl]amino]-6-[[(2R,8S)-2-fluoro-1,2,3,5,6,7-hexahydropyrrolizin-8-yl]methoxy]-1,3,5-triazin-2-yl]spiro[5,6-dihydrocyclopenta[b]thiophene-4,3′-azetidine]-3-carbonitrile] | 4.70 to 6.00 | > 8.00 | 4.70 to 6.00 | 6.00 to 7.00 | – | –
13 | CC(c1cccnc1N)N(CCO)c1nc(OC[C@@]23CCCN2C[C@H](F)C3)nc(N2CC3(CCc4sc(N)c(C#N)c43)C2)n1 (single isomer, unassigned) [Compound 122A, 2-amino-1′-[4-[[(1*)-1-(2-amino-3-pyridyl)ethyl]-(2-hydroxyethyl)amino]-6-[[(2R,8S)-2-fluoro-1,2,3,5,6,7-hexahydropyrrolizin-8-yl]methoxy]-1,3,5-triazin-2-yl]spiro[5,6-dihydrocyclopenta[b]thiophene-4,3′-azetidine]-3-carbonitrile] | 7.00 to 8.00 | > 8.00 | > 8.00 | > 8.00 | – | –
14 | CCN(c1nc(OC[C@@]23CCCN2C[C@H](F)C3)nc(N2CC3(C2)SCc2sc(N)c(C#N)c23)n1)[C@@H](C)c1cccnc1N [Compound 139B, 2-amino-1′-[4-[[(1*)-1-(2-amino-3-pyridyl)ethyl]-ethyl-amino]-6-[[(2R,8S)-2-fluoro-1,2,3,5,6,7-hexahydropyrrolizin-8-yl]methoxy]-1,3,5-triazin-2-yl]spiro[6H-thieno[3,4-b]thiophene-4,3′-azetidine]-3-carbonitrile] | 7.00 to 8.00 | > 8.00 | 7.00 to 8.00 | > 8.00 | – | –
15 | N#Cc1c(N)sc2c1C1(CC2)CN(c2nc(OC[C@@]34CCCN3C[C@H](F)C4)nc(N3CCCCC3C#N)n2)C1 (stereo partly drawn) [Compound 44, 2-amino-1′-[4-(2-cyano-1-piperidyl)-6-[[(2R,8S)-2-fluoro-1,2,3,5,6,7-hexahydropyrrolizin-8-yl]methoxy]-1,3,5-triazin-2-yl]spiro[5,6-dihydrocyclopenta[b]thiophene-4,3′-azetidine]-3-carbonitrile] | 4.70 to 6.00 | 7.00 to 8.00 | 6.00 to 7.00 | 7.00 to 8.00 | – | –

Reference: US12421254B2, “KRAS modulators and uses thereof” (Quanta Therapeutics, Inc., priority 2023, dated 2025)
